Data set [1] is filed under the species Homo sapiens. As to the kind of experiment: Selectivity for human beta-factor 12a over human factor 10a.
For data set [2], the species on record is Homo sapiens. Description: Selectivity for human beta factor 12a over human plasma kallikrein.
Data set [3] concerns the target Plasminogen (Homo sapiens) (UniProt P00747). Description: Inhibition of human plasmin at 40 uM using fluorogenic substrate H-D-Val-Leu-Lys-AMC.
Data set [4] concerns Plasma. As to the kind of experiment: Anticoagulant activity in human plasma assessed as concentration required to double activated partial thromboplastin time by coagulation analyser. Type of data set: functional.
Data set [5] can be described thus: Half life in human citrated plasma at 10 uM by mass spectrophotometric analysis. The class given is ADME, cell-free.
The species named for data set [6] is Homo sapiens. Description: Selectivity for human beta-factor 12a over human factor 7a.
The target of data set [7] is Coagulation factor XI (Homo sapiens) (UniProt P03951). Description: Inhibition of human factor 11a at 40 uM using fluorogenic substrate Boc-Phe-Ser-Arg-AMC.
Coagulation factor XI (Homo sapiens), sequence (P03951 19-387 limits assumed): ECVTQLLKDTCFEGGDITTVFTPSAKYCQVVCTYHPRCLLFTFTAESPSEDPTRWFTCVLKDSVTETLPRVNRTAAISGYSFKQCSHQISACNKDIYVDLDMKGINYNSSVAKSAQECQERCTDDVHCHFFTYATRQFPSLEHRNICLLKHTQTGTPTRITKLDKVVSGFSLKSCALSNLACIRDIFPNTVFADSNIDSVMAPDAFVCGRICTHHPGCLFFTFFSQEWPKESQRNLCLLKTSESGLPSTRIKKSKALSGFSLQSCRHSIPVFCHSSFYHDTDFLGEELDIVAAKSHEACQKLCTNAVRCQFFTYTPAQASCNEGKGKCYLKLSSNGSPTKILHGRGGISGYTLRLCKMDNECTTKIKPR
Coagulation factor XI (Homo sapiens), sequence (P03951 388-625 limits assumed): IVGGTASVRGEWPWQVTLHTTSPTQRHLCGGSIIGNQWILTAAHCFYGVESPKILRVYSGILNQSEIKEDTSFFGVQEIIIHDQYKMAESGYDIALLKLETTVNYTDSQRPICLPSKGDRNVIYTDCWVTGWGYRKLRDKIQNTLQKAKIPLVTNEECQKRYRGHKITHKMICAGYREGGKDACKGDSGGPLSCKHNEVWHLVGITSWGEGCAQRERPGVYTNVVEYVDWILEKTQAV
Another data set addresses T1, Coagulation factor XII (Homo sapiens, UniProt P00748).
T1 sequence (P00748 whole entry): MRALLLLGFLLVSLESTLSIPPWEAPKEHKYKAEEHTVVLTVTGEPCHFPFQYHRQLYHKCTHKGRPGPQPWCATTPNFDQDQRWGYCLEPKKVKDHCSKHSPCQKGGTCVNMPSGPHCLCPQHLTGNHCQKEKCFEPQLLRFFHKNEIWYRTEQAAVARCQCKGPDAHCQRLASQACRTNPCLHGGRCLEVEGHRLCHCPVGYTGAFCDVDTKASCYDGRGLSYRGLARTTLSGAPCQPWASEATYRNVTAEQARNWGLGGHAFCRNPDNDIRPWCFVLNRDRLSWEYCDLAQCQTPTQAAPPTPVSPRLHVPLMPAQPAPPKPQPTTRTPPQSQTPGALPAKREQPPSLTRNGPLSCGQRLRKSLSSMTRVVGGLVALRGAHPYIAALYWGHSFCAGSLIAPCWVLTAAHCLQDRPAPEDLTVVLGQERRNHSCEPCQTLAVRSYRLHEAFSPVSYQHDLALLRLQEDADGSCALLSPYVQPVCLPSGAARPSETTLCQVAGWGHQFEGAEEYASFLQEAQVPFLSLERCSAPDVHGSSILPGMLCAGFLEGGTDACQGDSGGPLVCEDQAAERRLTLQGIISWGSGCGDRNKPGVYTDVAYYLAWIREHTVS
As to the kind of experiment: Inhibition of human beta factor 12a using fluorogenic substrate Boc-Gln-Gly-Arg-AMC preincubated for 10 mins followed by addition of substrate measured every min for 30 mins.

For data set [8], the species on record is Homo sapiens. As to the kind of experiment: Selectivity for human beta-factor 12a over human factor 11a.
For data set [9], the species on record is Homo sapiens. As to the kind of experiment: Selectivity for human beta-factor 12a over human uPa.
The species entered for data set [10] is Homo sapiens. Description: Inhibition of human trypsin at 40 uM using fluorogenic substrate Z-Gly-Gly-Arg-AMC.
The species entered for data set [11] is Homo sapiens. Description: Selectivity for human beta-factor 12a over human plasmin.
The target of data set [12] is Prothrombin (Homo sapiens) (UniProt P00734). Description: Inhibition of human thrombin at 40 uM using fluorogenic substrate Z-Gly-Gly-Arg-AMC.
Data set [13] concerns the target Urokinase-type plasminogen activator (Homo sapiens) (UniProt P00749). Description: Inhibition of human uPa at 40 uM using fluorogenic substrate Z-Gly-Gly-Arg-AMC.
Data set [14] is filed under the species Homo sapiens. Description: Selectivity for human beta-factor 12a over human tPa.
Data set [15] addresses T2, Coagulation factor VII (Homo sapiens) (UniProt P08709).
T2 sequence (whole entry): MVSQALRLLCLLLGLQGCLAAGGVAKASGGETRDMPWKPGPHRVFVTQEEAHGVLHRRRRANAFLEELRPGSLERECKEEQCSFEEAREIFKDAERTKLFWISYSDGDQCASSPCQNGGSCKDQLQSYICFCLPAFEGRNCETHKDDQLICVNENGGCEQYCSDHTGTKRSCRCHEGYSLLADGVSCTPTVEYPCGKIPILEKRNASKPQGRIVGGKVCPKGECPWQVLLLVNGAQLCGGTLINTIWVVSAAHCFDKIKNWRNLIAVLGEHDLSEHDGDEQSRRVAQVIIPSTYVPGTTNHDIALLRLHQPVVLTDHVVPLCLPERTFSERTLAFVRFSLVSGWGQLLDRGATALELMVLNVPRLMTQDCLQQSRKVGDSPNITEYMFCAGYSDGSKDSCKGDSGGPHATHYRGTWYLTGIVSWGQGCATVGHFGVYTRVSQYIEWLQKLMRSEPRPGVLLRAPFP
As to the kind of experiment: Inhibition of human factor 7a at 40 uM using fluorogenic substrate D-Phe-Pro-Arg-ANSNH-C4H9.

The nature of data set [16]: Inhibition of human trypsin using fluorogenic substrate Z-Gly-Gly-Arg-AMC.
For data set [17], the target named is Coagulation factor X (Homo sapiens) (UniProt P00742). As to the kind of experiment: Inhibition of human factor 10a at 40 uM using fluorogenic substrate D-Phe-Pro-Arg-ANSNH-C4H9.
Coagulation factor X (Homo sapiens), sequence (P00742 41-179 limits assumed): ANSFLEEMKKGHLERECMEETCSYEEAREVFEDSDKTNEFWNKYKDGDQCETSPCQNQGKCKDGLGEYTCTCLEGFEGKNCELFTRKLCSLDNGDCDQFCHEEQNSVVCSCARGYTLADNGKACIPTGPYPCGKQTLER
Coagulation factor X (Homo sapiens), sequence (P00742 235-488 limits assumed): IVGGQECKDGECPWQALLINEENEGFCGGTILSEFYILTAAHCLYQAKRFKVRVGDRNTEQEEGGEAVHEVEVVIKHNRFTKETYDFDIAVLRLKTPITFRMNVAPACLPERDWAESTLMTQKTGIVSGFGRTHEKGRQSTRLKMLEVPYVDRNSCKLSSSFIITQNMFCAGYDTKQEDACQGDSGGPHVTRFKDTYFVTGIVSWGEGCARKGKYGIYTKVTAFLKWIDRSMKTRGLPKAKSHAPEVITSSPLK
For data set [18], the system named is Plasma. Description: Anticoagulant activity in human plasma assessed as change in prothrombin time up to 40 uM by coagulation analyser. Type of data set: functional, cell-free.
For data set [19], the target named is Tissue-type plasminogen activator (Homo sapiens) (UniProt P00750). Description: Inhibition of human tPa at 40 uM using fluorogenic substrate Z-Gly-Gly-Arg-AMC.
Tissue-type plasminogen activator (Homo sapiens), sequence (P00750 36-562 limits assumed): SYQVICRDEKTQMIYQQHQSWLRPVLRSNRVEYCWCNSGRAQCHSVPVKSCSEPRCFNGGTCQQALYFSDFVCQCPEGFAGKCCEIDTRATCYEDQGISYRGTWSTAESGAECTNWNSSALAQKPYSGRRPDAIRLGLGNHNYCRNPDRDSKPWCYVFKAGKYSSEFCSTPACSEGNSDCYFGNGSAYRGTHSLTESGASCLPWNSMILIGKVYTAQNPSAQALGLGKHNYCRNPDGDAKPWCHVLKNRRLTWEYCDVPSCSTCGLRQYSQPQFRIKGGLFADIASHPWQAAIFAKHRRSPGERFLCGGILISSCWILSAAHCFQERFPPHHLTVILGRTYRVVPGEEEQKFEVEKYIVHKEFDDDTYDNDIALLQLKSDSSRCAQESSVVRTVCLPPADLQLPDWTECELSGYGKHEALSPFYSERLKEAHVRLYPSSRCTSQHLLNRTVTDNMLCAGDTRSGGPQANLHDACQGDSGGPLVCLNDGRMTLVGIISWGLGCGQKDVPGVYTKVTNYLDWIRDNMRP
The target in data set [20] is T3, Plasma kallikrein (Homo sapiens, UniProt P03952). Description: Inhibition of human plasma kallikrein using fluorogenic substrate Z-Phe-Arg-AMC.
T3 sequence (P03952 20-390 limits assumed): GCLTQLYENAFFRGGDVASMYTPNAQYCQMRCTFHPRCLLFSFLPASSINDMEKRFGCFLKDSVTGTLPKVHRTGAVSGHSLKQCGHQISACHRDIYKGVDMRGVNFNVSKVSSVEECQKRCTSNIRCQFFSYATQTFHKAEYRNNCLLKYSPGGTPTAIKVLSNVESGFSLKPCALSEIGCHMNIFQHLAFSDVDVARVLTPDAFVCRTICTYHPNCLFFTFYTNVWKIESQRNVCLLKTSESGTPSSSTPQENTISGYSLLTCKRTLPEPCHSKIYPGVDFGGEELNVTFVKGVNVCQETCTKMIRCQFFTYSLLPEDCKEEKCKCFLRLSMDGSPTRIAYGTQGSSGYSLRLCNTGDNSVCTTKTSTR
T3 sequence (P03952 391-638 limits assumed): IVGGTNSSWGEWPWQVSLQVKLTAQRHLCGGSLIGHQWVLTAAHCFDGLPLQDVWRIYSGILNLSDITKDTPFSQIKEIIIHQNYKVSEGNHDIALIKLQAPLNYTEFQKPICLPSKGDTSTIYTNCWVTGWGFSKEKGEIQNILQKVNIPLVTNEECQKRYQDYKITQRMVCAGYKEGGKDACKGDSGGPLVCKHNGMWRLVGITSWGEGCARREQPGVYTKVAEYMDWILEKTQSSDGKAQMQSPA
Data set [21] has as its target T3, Plasma kallikrein. Description: Inhibition of human plasma kallikrein at 40 uM using fluorogenic substrate Z-Phe-Arg-AMC.
The species entered for data set [22] is Homo sapiens. Description: Selectivity for human beta-factor 12a over human trypsin.
The species entered for data set [23] is Homo sapiens. Description: Selectivity for human beta-factor 12a over human thrombin.

Calls of active or inactive are those of the source. The calls are words filed in the database; no cut-off is given here. A value given as a limit tells only on which side of the number the result lay.

Broadly, the inhibition is the share of the control response that was lost under treatment. By half-life is commonly meant the time in which the quantity being followed falls by half. A lower half-life goes with fast loss. Broadly, the Ki is the dissociation constant of the complex between target and ligand, obtained from inhibition or displacement. A high value points to lower affinity.

Plasminogen (Homo sapiens), sequence (P00747 97-580 limits assumed): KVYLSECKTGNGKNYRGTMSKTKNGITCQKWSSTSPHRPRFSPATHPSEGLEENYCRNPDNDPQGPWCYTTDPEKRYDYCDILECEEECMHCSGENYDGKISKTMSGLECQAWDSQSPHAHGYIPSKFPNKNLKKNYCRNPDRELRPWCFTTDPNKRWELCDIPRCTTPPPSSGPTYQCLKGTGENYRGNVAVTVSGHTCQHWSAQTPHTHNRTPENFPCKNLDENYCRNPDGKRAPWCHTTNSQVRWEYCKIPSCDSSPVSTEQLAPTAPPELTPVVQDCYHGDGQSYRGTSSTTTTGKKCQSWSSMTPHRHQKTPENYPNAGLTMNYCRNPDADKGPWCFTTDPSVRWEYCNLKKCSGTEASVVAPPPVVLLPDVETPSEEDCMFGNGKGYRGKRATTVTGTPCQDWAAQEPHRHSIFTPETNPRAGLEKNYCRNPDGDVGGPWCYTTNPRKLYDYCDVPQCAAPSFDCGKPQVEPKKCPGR
Plasminogen (Homo sapiens), sequence (P00747 581-810 limits assumed): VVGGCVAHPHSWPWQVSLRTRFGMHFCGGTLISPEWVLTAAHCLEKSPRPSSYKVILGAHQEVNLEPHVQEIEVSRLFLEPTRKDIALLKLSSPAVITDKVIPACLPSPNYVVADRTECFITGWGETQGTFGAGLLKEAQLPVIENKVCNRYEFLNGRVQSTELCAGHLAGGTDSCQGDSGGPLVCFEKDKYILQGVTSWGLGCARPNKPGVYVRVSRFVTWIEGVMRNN

Consider `CC(C)C[C@@H]1NC(=O)[C@H](CCC(N)=O)NC(=O)[C@H](CCCNC(=N)N)NC(=O)[C@@H]2CSCCC(=O)N3CN(CN(C3)C(=O)CCSC[C@H](NC(=O)[C@@H](N)CCNC(=N)N)C(=O)N[C@@H](Cc3ccc(F)cc3)C(=O)N[C@@H](CCCNC(=N)N)C(=O)N[C@@H](CC(C)C)C(=O)N3CCC[C@H]3C(=O)N2)C(=O)CCSC[C@@H](C(=O)N[C@@H](CCCNC(=N)N)C(=O)O)NC(=O)[C@H](CCCNC(=N)N)NC1=O`, for which the Selectivity ratio in the data set listed under Homo sapiens [1], in the data set listed under Homo sapiens [2], in the data set filed under Homo sapiens [6], in the data set filed under Homo sapiens [8], in the data set filed under Homo sapiens [9] and in the data set listed under Homo sapiens [11] was 27000 in each case. Moreover, the Selectivity ratio in the data set listed under Homo sapiens [14] was determined as 27000; in the data set filed under Homo sapiens [22], 800; in the data set filed under Homo sapiens [23], 27000. Moreover, the inhibition was below 20% in data set [3]; below 20% in data set [7]; above 50% in the data set filed under Homo sapiens [10]; below 20% in data set [12]; below 20% in data set [13]; below 20% in data set [15]. The values for the inhibition (in data set [17]; in data set [19]; at Plasma kallikrein [21]) were below 20%, below 20% and above 50%, respectively. Further, in the data set with Plasma [4], the 2aPTT amounted to 2 µM. In addition, the Activity entry in the data set on Plasma [4] is “Dose-dependent effect”. In addition, the half-life at 10 µM in data set [5] is 16 h. Further, the results for the inhibition constant (Ki) (at Coagulation factor XII; in data set [16]; on Plasma kallikrein [20]) were 1.63 nM, 1300 nM and 45100 nM, respectively. The outcome with Plasma [18] was inactive.
As to `CC(C)C[C@@H]1NC(=O)[C@H](CCC(N)=O)NC(=O)[C@H](CCCNC(=N)N)NC(=O)[C@@H]2CSCCC(=O)N3CN(CN(C3)C(=O)CCSC[C@H](NC(=O)[C@@H](N)CCCNC(=N)N)C(=O)N[C@@H](Cc3ccccc3)C(=O)N[C@@H](CCCNC(=N)N)C(=O)N[C@@H](CC(C)C)C(=O)N3CCC[C@H]3C(=O)N2)C(=O)CCSC[C@@H](C(=O)N[C@@H](CCCNC(=N)N)C(=O)O)NC(=O)[C@H](CCCNC(=N)N)NC1=O`, the 2aPTT in the data set on Plasma [4] was determined as 2.9 µM. In the data set with Plasma [4], the Activity entry is “Dose-dependent effect”. The half-life at 10 µM in data set [5] was 4 h. For the same molecule, the inhibition result in the data set filed under Homo sapiens [10] and at Plasma kallikrein [21] was “Active” throughout. Besides, the outcome in the data set with Plasma [18] was inactive.
Regarding `CC(C)C[C@@H]1NC(=O)[C@H](CCC(N)=O)NC(=O)[C@H](CCCNC(=N)N)NC(=O)[C@@H]2CSCCC(=O)N3CN(CN(C3)C(=O)CCSC[C@H](NC(=O)[C@@H](N)CCCNC(=N)N)C(=O)N[C@@H](Cc3ccc(F)cc3)C(=O)N[C@@H](CCCNC(=N)N)C(=O)N[C@@H](CC(C)C)C(=O)N3CCC[C@H]3C(=O)N2)C(=O)CCSC[C@@H](C(=O)N[C@@H](CCCNC(=N)N)C(=O)O)NC(=O)[C@H](CCCNC(=N)N)NC1=O`, the 2aPTT in the data set with Plasma [4] was determined as 1.6 µM. The Activity entry in the data set on Plasma [4] is “Dose-dependent effect”. The same molecule had a Ki on Coagulation factor XII of 0.84 nM. The inhibition result in the data set listed under Homo sapiens [10] and on Plasma kallikrein [21] was “Active” throughout. The result with Plasma [18] was inactive.
`CC(C)C[C@@H]1NC(=O)[C@H](CCC(N)=O)NC(=O)[C@H](CCCNC(=N)N)NC(=O)[C@@H]2CSCCC(=O)N3CN(CN(C3)C(=O)CCSC[C@@H](C(=O)N[C@@H](CCCNC(=N)N)C(=O)O)NC(=O)[C@H](CCCNC(=N)N)NC1=O)C(=O)CCSC[C@H](NC(=O)[C@H](N)Cc1ccc(NC(=N)N)cc1)C(=O)N[C@@H](Cc1ccccc1)C(=O)N[C@@H](CCCNC(=N)N)C(=O)N[C@@H](CC(C)C)C(=O)N1CCC[C@H]1C(=O)N2`: the half-life at 10 µM in [5] was 13 h. At Coagulation factor XII, this molecule displayed an inhibition constant (Ki) of 15 nM.
For `CC(C)C[C@@H]1NC(=O)[C@H](CCC(N)=O)NC(=O)[C@H](CCCNC(=N)N)NC(=O)[C@@H]2CSCCC(=O)N3CN(CN(C3)C(=O)CCSC[C@@H](C(=O)N[C@@H](CCCNC(=N)N)C(=O)O)NC(=O)[C@H](CCCNC(=N)N)NC1=O)C(=O)CCSC[C@H](NC(=O)[C@H](N)CCNC(=N)N)C(=O)N[C@@H](Cc1ccccc1)C(=O)N[C@@H](CCCNC(=N)N)C(=O)N[C@@H](CC(C)C)C(=O)N1CCC[C@H]1C(=O)N2`, in that order: 22 h and 14 nM.

(Values after ChEMBL document CHEMBL3992518, “Peptide Macrocycle Inhibitor of Coagulation Factor XII with Subnanomolar Affinity and High Target Selectivity” (J Med Chem, 2017).)
